In the OligoGym collection:
Oligonucleotides are written 5' to 3', each unit as a sugar letter and its base; * is a phosphorothioate linkage, no mark a phosphodiester; rarer units and linkages stand in square brackets, end groups in braces. Plain capitals give the bases only. d = 2'-deoxy (DNA); r = 2'-OH (RNA)

These substances were tested against DENND5A (assay: reporter assay of Huesken 2005). Details: siRNA.
Note: test concentration or dose not given here.

Substance | normalised inhibition (eCFP-eYFP dual reporter) [%]
sense rArArArUrCrArGrCrCrUrUrArUrGrGrUrCrCrCdTdT / antisense rGrGrGrArCrCrArUrArArGrGrCrUrGrArUrUrUdCdC | 41.9
sense rArArCrArGrGrGrArGrCrArArArUrGrCrArArAdTdT / antisense rUrUrUrGrCrArUrUrUrGrCrUrCrCrCrUrGrUrUdGdG | 49.2
sense rArArCrCrUrArUrUrArUrGrArGrArCrArUrUrAdTdT / antisense rUrArArUrGrUrCrUrCrArUrArArUrArGrGrUrUdTdG | 66.3
sense rArArCrUrGrGrGrGrUrGrArGrCrCrUrGrGrArAdTdT / antisense rUrUrCrCrArGrGrCrUrCrArCrCrCrCrArGrUrUdCdT | 58.4
sense rArArGrArGrGrArArUrGrGrGrArArCrArUrUrGdTdT / antisense rCrArArUrGrUrUrCrCrCrArUrUrCrCrUrCrUrUdGdT | 50
sense rArArUrGrGrCrArUrUrGrUrGrArArGrCrArCrUdTdT / antisense rArGrUrGrCrUrUrCrArCrArArUrGrCrCrArUrUdGdA | 60.5
sense rArArUrGrGrGrArArCrArUrUrGrCrUrGrGrCrUdTdT / antisense rArGrCrCrArGrCrArArUrGrUrUrCrCrCrArUrUdCdC | 43.6
sense rArCrArUrCrCrArGrArArCrArUrCrGrGrGrGrAdTdT / antisense rUrCrCrCrCrGrArUrGrUrUrCrUrGrGrArUrGrUdGdC | 44.4
sense rArCrArUrGrArArGrArUrUrGrGrArCrArArGrGdTdT / antisense rCrCrUrUrGrUrCrCrArArUrCrUrUrCrArUrGrUdCdA | 70.5
sense rArCrCrCrCrArGrCrArGrCrArArUrArArGrGrAdTdT / antisense rUrCrCrUrUrArUrUrGrCrUrGrCrUrGrGrGrGrUdCdT | 64.9
sense rArCrCrUrGrCrCrCrUrUrCrCrUrCrUrCrArArGdTdT / antisense rCrUrUrGrArGrArGrGrArArGrGrGrCrArGrGrUdAdG | 53.2
sense rArCrGrArGrCrUrGrUrCrGrGrCrArUrUrArUrGdTdT / antisense rCrArUrArArUrGrCrCrGrArCrArGrCrUrCrGrUdCdC | 54.1
sense rArCrGrCrUrGrUrUrGrCrUrCrUrGrUrGrGrArGdTdT / antisense rCrUrCrCrArCrArGrArGrCrArArCrArGrCrGrUdCdA | 60.7
sense rArCrUrGrGrGrGrUrGrArGrCrCrUrGrGrArArAdTdT / antisense rUrUrUrCrCrArGrGrCrUrCrArCrCrCrCrArGrUdTdC | 37.1
sense rArGrArArCrUrUrGrGrGrGrArArGrCrUrUrArCdTdT / antisense rGrUrArArGrCrUrUrCrCrCrCrArArGrUrUrCrUdGdG | 88.2
sense rArGrArArGrArArCrUrCrArGrGrArUrUrUrArCdTdT / antisense rGrUrArArArUrCrCrUrGrArGrUrUrCrUrUrCrUdTdC | 44.7
sense rArGrArCrCrCrArGrGrCrUrGrArUrCrCrCrArGdTdT / antisense rCrUrGrGrGrArUrCrArGrCrCrUrGrGrGrUrCrUdTdG | 75.1
sense rArGrArGrGrArArUrGrGrGrArArCrArUrUrGrCdTdT / antisense rGrCrArArUrGrUrUrCrCrCrArUrUrCrCrUrCrUdTdG | 53.6
sense rArGrArGrGrGrArGrArArGrUrArCrArUrCrCrAdTdT / antisense rUrGrGrArUrGrUrArCrUrUrCrUrCrCrCrUrCrUdGdG | 80.7
sense rArGrArGrUrGrCrCrUrCrCrArArGrCrUrGrArAdTdT / antisense rUrUrCrArGrCrUrUrGrGrArGrGrCrArCrUrCrUdCdA | 66.9
sense rArGrCrCrCrCrArArUrUrCrCrArUrGrCrCrUrUdTdT / antisense rArArGrGrCrArUrGrGrArArUrUrGrGrGrGrCrUdCdC | 57.6
sense rArGrCrUrGrArArGrArGrGrCrUrGrCrGrGrGrCdTdT / antisense rGrCrCrCrGrCrArGrCrCrUrCrUrUrCrArGrCrUdTdG | 54.9
sense rArGrGrArCrArArCrCrGrGrCrArGrArGrArArAdTdT / antisense rUrUrUrCrUrCrUrGrCrCrGrGrUrUrGrUrCrCrUdGdA | 67
sense rArGrGrArGrArArUrUrGrGrGrUrGrArGrArCrAdTdT / antisense rUrGrUrCrUrCrArCrCrCrArArUrUrCrUrCrCrUdGdA | 70.5
sense rArGrGrCrUrGrArUrCrCrCrArGrGrGrArGrCrCdTdT / antisense rGrGrCrUrCrCrCrUrGrGrGrArUrCrArGrCrCrUdGdG | 57.4

Substance | normalised inhibition (eCFP-eYFP dual reporter) [%]
sense rArGrGrGrArUrGrGrUrGrCrCrArGrCrCrCrUrUdTdT / antisense rArArGrGrGrCrUrGrGrCrArCrCrArUrCrCrCrUdGdG | 83.7
sense rArGrUrUrGrCrCrArGrArGrGrArCrUrUrGrCrCdTdT / antisense rGrGrCrArArGrUrCrCrUrCrUrGrGrCrArArCrUdCdA | 71.7
sense rArUrCrCrArArCrCrCrArGrCrCrArGrGrArUrAdTdT / antisense rUrArUrCrCrUrGrGrCrUrGrGrGrUrUrGrGrArUdGdA | 51.8
sense rArUrCrCrGrCrCrArGrCrCrCrArArArCrUrGrUdTdT / antisense rArCrArGrUrUrUrGrGrGrCrUrGrGrCrGrGrArUdAdG | 40.9
sense rArUrGrCrCrArArArUrGrGrCrUrGrGrUrGrGrAdTdT / antisense rUrCrCrArCrCrArGrCrCrArUrUrUrGrGrCrArUdAdC | 69.5
sense rArUrGrGrCrUrGrGrUrGrGrArGrUrArUrGrUrGdTdT / antisense rCrArCrArUrArCrUrCrCrArCrCrArGrCrCrArUdTdT | 71.9
sense rArUrUrCrCrUrArCrGrArGrCrUrUrCrUrUrArAdTdT / antisense rUrUrArArGrArArGrCrUrCrGrUrArGrGrArArUdGdC | 65.4
sense rArUrUrGrArCrArArCrCrArCrUrUrCrArUrUrGdTdT / antisense rCrArArUrGrArArGrUrGrGrUrUrGrUrCrArArUdGdT | 48.7
sense rArUrUrGrArCrCrArUrArCrUrGrCrArArUrUrCdTdT / antisense rGrArArUrUrGrCrArGrUrArUrGrGrUrCrArArUdTdT | 45.9
sense rArUrUrGrCrCrArGrCrCrUrUrUrGrUrGrArUrCdTdT / antisense rGrArUrCrArCrArArArGrGrCrUrGrGrCrArArUdCdA | 48.5
sense rArUrUrUrGrArCrUrUrUrCrCrUrGrUrCrArArAdTdT / antisense rUrUrUrGrArCrArGrGrArArArGrUrCrArArArUdAdG | 53.7
sense rArUrUrUrGrGrGrUrUrUrGrCrCrCrUrCrArCrAdTdT / antisense rUrGrUrGrArGrGrGrCrArArArCrCrCrArArArUdGdT | 72.2
sense rCrArArGrArUrCrArGrGrCrUrGrUrUrGrArArUdTdT / antisense rArUrUrCrArArCrArGrCrCrUrGrArUrCrUrUrGdTdC | 55.7
sense rCrArCrArUrGrCrArCrArArUrGrCrUrGrArGrUdTdT / antisense rArCrUrCrArGrCrArUrUrGrUrGrCrArUrGrUrGdGdT | 69.6
sense rCrArCrCrUrArCrUrCrUrCrCrGrUrArCrArUrCdTdT / antisense rGrArUrGrUrArCrGrGrArGrArGrUrArGrGrUrGdTdC | 54.7
sense rCrArGrArUrCrUrGrCrArGrUrGrCrArArUrGrCdTdT / antisense rGrCrArUrUrGrCrArCrUrGrCrArGrArUrCrUrGdCdT | 56.3
sense rCrArGrArUrGrUrUrUrGrCrArUrCrUrUrUrCrAdTdT / antisense rUrGrArArArGrArUrGrCrArArArCrArUrCrUrGdGdG | 75.3
sense rCrArGrCrGrCrUrUrCrArArCrUrCrCrUrArUrGdTdT / antisense rCrArUrArGrGrArGrUrUrGrArArGrCrGrCrUrGdCdA | 49.9
sense rCrArGrGrArUrArUrGrArGrGrCrArCrArUrCrCdTdT / antisense rGrGrArUrGrUrGrCrCrUrCrArUrArUrCrCrUrGdAdA | 46.7
sense rCrArGrGrGrArGrCrArArArUrGrCrArArArArCdTdT / antisense rGrUrUrUrUrGrCrArUrUrUrGrCrUrCrCrCrUrGdTdT | 67.9
sense rCrArGrUrUrCrCrCrCrArArCrArArArUrUrGrGdTdT / antisense rCrCrArArUrUrUrGrUrUrGrGrGrGrArArCrUrGdTdG | 67.9
sense rCrArUrGrUrCrGrGrArGrCrGrUrGrCrUrGrGrAdTdT / antisense rUrCrCrArGrCrArCrGrCrUrCrCrGrArCrArUrGdCdC | 60.8
sense rCrArUrUrCrArGrArUrCrCrGrGrGrArArGrUrUdTdT / antisense rArArCrUrUrCrCrCrGrGrArUrCrUrGrArArUrGdTdT | 74.7
sense rCrCrArGrArGrGrGrArGrArArGrUrArCrArUrCdTdT / antisense rGrArUrGrUrArCrUrUrCrUrCrCrCrUrCrUrGrGdTdC | 34.5

What follows are substances tested against MRFAP1 (assay: reporter assay of Huesken 2005). Details: siRNA.

Substance | normalised inhibition (eCFP-eYFP dual reporter) [%]
sense rUrUrUrGrArGrGrUrCrArArArArCrCrCrUrUrAdTdT / antisense rUrArArGrGrGrUrUrUrUrGrArCrCrUrCrArArAdTdG | 82.6
sense rUrUrUrGrGrArArArArUrGrCrGrCrUrCrArCrAdTdT / antisense rUrGrUrGrArGrCrGrCrArUrUrUrUrCrCrArArAdTdC | 47.6
sense rUrUrUrGrGrGrUrCrCrCrUrGrUrGrArCrArCrUdTdT / antisense rArGrUrGrUrCrArCrArGrGrGrArCrCrCrArArAdGdT | 50.8
